≈ marks a conversion by molar mass, not a printed value.

The results in this text go back to patent publication US20050014849A1, “Antifungal phenylethylene” (priority 2001, published 2005).

Assay in all cases: Broth macrodilution MIC/MFC
What all share (type): cell-based

The subject of test [1] is Blastoschizomyces capitalus ATCC 10663. The procedure:
(§1) TMPN was screened against yeasts by the broth macrodilution assay according to the NCCLS [7]. Yeasts were suspended and diluted as recommended to yield final inocula ranging from 0.5-2.5×10^3 cfu/ml. Tests were performed in sterile 12 by 75 mm plastic tubes containing two-fold dilutions of TMPN in 0.165 M morpholinepropanesulfonic acid buffered RPMI 1640 medium (pH 7.0). One tube was again left drug free (but contained an equivalent volume of DMSO) for a turbidity control. Tubes were incubated without agitation at the appropriate temperature (see Fungal Strains section above). MICs were determined after 72 h for Cryptococcus and after 48 h for other yeast genera. The MIC was defined as the lowest concentration of TMPN that inhibited all visible growth of the test organism (optically clear).
(§2) Minimum fungicidal concentrations (MFCs) were determined by subculturing 0.1 ml from each tube with no visible growth in the MIC broth macrodilution series onto the appropriate drug-free plates (see Fungal Strains section above).

Another test relates to Candida albicans (7). The procedure:
as §1, §2

Test [2] relates to Filobasidium uniguttulatum ATCC 24227. The procedure: as §1, §2
For test [3], the system named is Fluconazole-resistant Cryptococcus neoformans (4). The method, then:
as §1, §2

The subject of another test is K. apiculate ATCC 9774. The procedure: as §1, §2
Test [4] concerns Kluyveromyces marxianus ATCC 365534. The procedure:
as §1, §2

In test [5] the test system is Rhodotorula mucilaginosa ATCC 9449. The procedure:
as §1, §2

The subject of test [6] is Trichosporon cutaneum ATCC 28592. The method, then:
as §1, §2

Consider `COc1cc(C=C[N+](=O)[O-])cc(OC)c1OC` [TMPN, 1-(3′,4′,5′-trimethoxyphenyl)-2-nitro-ethylene], for which the “MFC Range” value in test [1] was 32 mg/L (≈ 134 µM); in test [2], 2 mg/L (≈ 8.36 µM); in test [3], 4 to 16 mg/L; against K. apiculate ATCC 9774, 2 mg/L (≈ 8.36 µM); in test [4] it was 4 mg/L (≈ 16.7 µM); in test [5], 8 mg/L (≈ 33.4 µM). For the same compound, the “MFC Range” value in test [6] stood at 8 mg/L (≈ 33.4 µM). For the same compound, the “MIC Range” value in test [1] was 8 mg/L (≈ 33.4 µM); in the test on Candida albicans (7) (Candida albicans (7)), 4 to 32 mg/L; in test [2], 0.5 mg/L (≈ 2.09 µM); in test [3] it was 4 to 8 mg/L; against K. apiculate ATCC 9774, 1 mg/L (≈ 4.18 µM); in test [4], 4 mg/L (≈ 16.7 µM). The “MIC Range” value in test [5] and in test [6] was 4 mg/L (≈ 16.7 µM) throughout. In addition, the “share of isolates with MFC/MIC ratio <2” value in the test with Candida albicans (7) (C. albicans clinical isolates) was 71%. The “share of isolates with MFC/MIC ratio ≦2” value in the test on Candida albicans (7) (Candida albicans clinical isolates) amounted to 71%.
